Measurements published in patent publication US20090124562A1, “Versipelostatin derivative, anti-cancer agent and processes for production of the derivative and agent” (TOUDAI TLO, LTD., priority 2005, published 2009).

How the values were obtained:
[1] = tested on: GRP 78; test: Western blot of GRP 78 expression in HT 1080 cell (Examples 6, 7); type: cell-based; settings: glucose-deficient condition, cultured 18 hours, FIGS. 5 to 8
Excerpt: In Example 6, the action of the VST derivative to inhibit expression of GRP 78 was studied by Western blot method. In the present experiment, the compounds prepared in Example 1 (the compounds having the chemical structure represented by “Formula 11” as the substituent group R^1 (n=3)) was used as the VST derivative.
Expression of GRP 78 is known to induce under glucose-deficient condition. Thus in the present experiment, the action of the VST derivative to induce or inhibit expression of GPR78 was studied both under glucose-deficient condition and also under normal condition.
The experiment was performed generally in the following manner: First, HT 1080 cell (cancer cell) was cultured in RPMI 1640 medium. […] Then, cultured cells were harvested, and GRP 78 expressed was detected by Western blotting with an anti-GRP 78 antibody.
Then, the cell was cultured in a similar manner and condition to those in Example 6, and GRP 78 expressed was detected by Western blotting by using an anti-GRP 78 antibody.

[2] = tested on: HT 1080 cell; test: MTT assay, cell survival rate (Example 8); type: cell-based; settings: for cell survival rate (MTT assay): 24 hours
[3] = tested on: HT 1080 cell; test: Toxicity at the cell level, cell count at 100 μM (Examples 11, 12); type: cell-based
Description: HT 1080 cell was cultured in a 6-cm dish until the cells became 70% confluent, and VST or a VST derivative was added to a concentration of 10, 3, or 1 μM in the absence of glucose (in the glucose-deficient state), and the action thereof was studied.
In the present Example, the VST derivative prepared in Example 1 (the compounds having the chemical structure represented by “Formula 11” as the substituent group R^1 (n=3)) was used as the VST derivative. […] In the present Example, VST or the VST derivative was added at a concentration of 100 μM.
In the present Example, the culture cell was brought into the glucose-deficient state by addition of 2-deoxyglucose.
The three kinds of VST biotin derivatives prepared in Example 7 were used as the VST derivatives. In the present Example, VST or the VST derivative was added to a concentration of 100 μM, and 2-DG, to a concentration of 20 mM.

[4] = tested on: ICR mice; test: Acute toxicity experiment in mice (Example 13); type: in vivo; settings: male ICR mice, tail vein injection
Description: The mice used were 7- to 8-week old male ICR mice (available from Charles River). VST or a VST derivative was administered to each mouse by tail vein injection, and the toxicity thereof was studied. In the present experiment, the VST biotin derivative prepared in Example 7 was used as the VST derivative.

| Compound | induction of GRP 78 expression (Western blot) [1] | addition amount above which the cell survival rate declined significantly ([2]; 2-DG not added, MTT assay) | cell survival rate (MTT assay) ([2]; 2-DG not added, increasing addition amount, derivatives = VST-Biotin, VST-Biotin-C6, VST-Biotin-C12) | cell survival rate (MTT assay) ([2]; with 20 mM 2-DG (glucose-deficient state), derivatives = VST-Biotin, VST-Biotin-C6, VST-Biotin-C12) | cell death ([3]; Example 11: HT 1080 cell, glucose-deficient state) | cell count ([3]; Example 11: HT 1080 cell, normal culture environment (glucose present)) | cell death ([3]; Example 12: HT 1080 cell, glucose-deficient state by 2-DG 20 mM, three VST biotin derivatives of Example 7) | cell count ([3]; Example 12: HT 1080 cell, normal culture environment, three VST biotin derivatives of Example 7) | Number of dead animals (within 24 hours) ([4]; 6 mg/kg) | Number of dead animals (within 24 hours) ([4]; 9 mg/kg) | Number of dead animals (within 24 hours) ([4]; 12 mg/kg) | Number of dead animals (within 24 hours) ([4]; 15 mg/kg) | Number of dead animals (within 24 hours) ([4]; 18 mg/kg) | Number of dead animals (within 24 hours) ([4]; 21 mg/kg) | Number of dead animals (within 24 hours) ([4]; 30 mg/kg) | dosage leading to death of all mice ([4]; summary of Table 1) | cell survival rate (MTT assay) ([2]; 20 mM 2-DG alone) |
| --- | --- | --- | --- | --- | --- | --- | --- | --- | --- | --- | --- | --- | --- | --- | --- | --- | --- |
| versipelostatin [VST] | inhibited to some extent | exceeded 25 μM | declined significantly | around 30% | cell death | significant decrease in cell count | cell death | significant drop in cell count | 0 | 0 | 1 | 5 | 4 | 4 | 4 | more than 18 mg/kg |  |
| O=CC[C@@H](O)[C@H](O)[C@H](O)CO [Example 2-DG, 2-deoxyglucose] |  |  |  |  |  |  |  |  |  |  |  |  |  |  |  |  | approximately 50% |
